SMILES strings stand for the structures.

The results in this text go back to patent EP0249301A1, “Pyrido[2,3-b]indoles” (BEECHAM GROUP PLC, priority 1986, dated 1987).

The test deals with Rats. Nature of the test: Geller-Seifter procedure (conflict test for anxiolytic properties). It counts as in vivo. The conditions noted are these: Rattus norvegicus, 0.5 h; dose 50 mg/kg po, 30 min before testing; percentage increase in square root of total lever presses in the FR5 'conflict' session; read-out: increase in responding in the 'conflict' session. As to the method:
Potential anxiolytic properties have been evaluated using the Geller-Seifter procedure based on that originally described by Geller and Seifter, (1960) Psychopharmacologia, 1, 482-492.
Rats are trained on a variable interval 30 sec schedule (VI30) to press a lever in order to obtain food reward. The 5 min sessions of the V130 schedule alternate with 2-5 min of a schedule (FR5) in which every 5th lever press is followed by presentation of a food pellet paired with a 0.5 sec mild footshock. The total study lasts approximately 30 mins. Rats typically respond with high rates of lever pressing under the VI30 schedule and low response rats under the Fx5 'conflict' session. Anxiolytic drugs increase the suppressed response rates of rats in 'conflict' session.
Drugs are administered intraperitoneally or orally to groups of 3-8 rats 30 min before testing.
The results are expressed as the percentage increase in square root of the total number of lever presses in the FR5 'conflict' session. Square root transformation is necessary to normalise the data for statistical analysis using parametric methods.
With `COC(=O)c1c(C)nc2[nH]c3ccccc3c2c1N` [Example 1, 4-Amino-2-methyl-9H-pyrido[2,3-b]indole-3-carboxylic acid, methyl ester], the change in vivo at 50 mg/kg was 143%.
On to `C=CCOC(=O)c1c(C)nc2c(c1N)c1ccccc1n2C` [Example 11, 4-Amino-2,9-dimethyl-9H-pyrido[2,3-b]indole-3-carboxylic acid, 2-propenyl ester], for which the change in vivo at 50 mg/kg was 138%.
Next, `CCCOC(=O)c1c(C)nc2c(c1N)c1ccccc1n2C` [Example 24, 4-Amino-2,9-dimethyl-9H-pyrido[2,3,b]indole-3-carboxylic acid, n-propyl ester]: 78%; `CNc1c(C(=O)OC)c(C)nc2c1c1ccccc1n2C` [Example 8, 2,9-Dimethyl-4-methylamino-9H-pyrido[2,3-b]indole-3-carboxylic acid, methyl ester]: 112%; `C#CCOC(=O)c1c(C)nc2c(c1N)c1ccccc1n2C` [Example 14, 4-Amino-2,9-dimethyl-9H-pyrido[2,3-b]indole-3-carboxy-lie acid, 2-propynyl ester]: 102%.
